Laboratory results reported in PubChem BioAssay AID179 (DTP/NCI, 2004).
Values joined by “and” are separate entries in the source; they are usually repeats but may differ in a detail not shown here. Equal entries are not always repeated. Active and inactive are the calls of the source.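 Rule for the calls: active = compounds giving half or more protection of infected cells from virus-caused growth loss, again on retest; inactive = the rest.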

Tested on: CEM cells HIV-1 protection, formazan growth assay
Experiment: NCI AIDS Antiviral Assay
Details: for IC50: measured here: growth of uninfected CEM cells
How it was run: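 CEM (human) cells, HIV-1 infected vs uninfected, 5-point dosing, formazan growth read-out. Retest threshold 50% protection.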

SMILES | outcome | EC50 | IC50
COC(=O)CCC(NC(=O)C(C)NC(=O)COC1C(O)C(OC(=O)CCNc2c3ccccc3nc3cccc([N+](=O)[O-])c23)OC(OCc2ccccc2)C1NC(C)=O)C(N)=O (stereo not drawn) | inactive | – | –
COC(=O)CN1SC2(SC13C(C)(C)C(=O)C3(C)C)C(C)(C)C(=O)C2(C)C | – | > 200 µM | 50.1 µM
O=C(Nc1c(-c2nc3ccccc3[nH]2)sc(=S)n1-c1ccccc1)c1ccccc1 | – | > 3.39 µM | > 3.39 µM
Nc1cccc2c1C1=NNC(=O)CC1C2 (stereo not drawn) | inactive | – | –
O=C1OC(c2ccccc2)=N/C1=C\c1ccc(Cl)cc1Cl | – | > 200 µM | 97.7 µM
CC1(C)CC(=O)C(=[N+]=[N-])C(=O)C1 | – | > 200 µM | > 200 µM
CCOC(=O)/C=C1/C(CCCOCc2ccccc2)C2CCCC23CC2(CCN13)OCCO2 (stereo not drawn) | inactive | – | –
COC12C(COC(N)=O)C3=C(C(=O)C(C)=C(N4CCN(C)CC4)C3=O)N1CC1NC12 (stereo not drawn) | – | > 200 µM | 110 µM
O=C(C1CC2CCN1CC2)N1CCN(C(=O)C2CC3CCN2CC3)CC1 (stereo not drawn) | – | > 200 µM | > 200 µM
CCN(CC)CCN(C(=Nc1ccccc1)N1CCOCC1)c1ccccc1 | – | > 200 µM | 41.7 µM
COc1ccc2cc3[n+](cc2c1OC)CCc1cc(O)c(O)cc1-3 | inactive | – | –
O=C(CC(C(=O)c1cccs1)c1ccsc1)c1cccs1 (stereo not drawn) | – | > 200 µM | 40.7 µM
Cc1cc(=O)[nH]c(CO)n1 | – | > 200 µM | > 200 µM
CN1CC2(CO)C(c3ccccn3)N(C)C(c3ccccn3)C(CO)(C1)C2O (stereo not drawn) | – | > 115 µM | > 115 µM
O=C(NCc1ccncc1)C1COc2cc(-c3cc(=O)c4ccccc4o3)ccc2O1 (stereo not drawn) | inactive | – | –
COC(=O)C12OC(C)(C(CC(=O)OC(C)(C)C)C1=O)C1C(=O)N(c3ccccc3)C(=O)C12 (stereo not drawn) | – | > 200 µM | > 200 µM
O=S(=O)(O)CCN(CCO)CCO | – | > 200 µM | > 200 µM
COc1ccc(/C=C/C(=O)Oc2cc(O)cc(O)c2)cc1 | – | > 200 µM | 4.57 µM
COc1cc(-c2oc(C=Nc3ccccc3)c([N+](=O)[O-])c2-c2ccc(O)c(OC)c2)ccc1O | – | > 200 µM | 7.59 µM
Cc1ccc(S(=O)(=O)OC2C(C)OCOC3COCOC32)cc1 (stereo not drawn) | – | > 145 µM | > 145 µM
CC(C)(C)OC(=O)NNCC(O)COc1ccccc1 (stereo not drawn) | – | > 200 µM | 91.2 µM
N#C[C@H]1Nc2ccccc2[C@@H](O)C1O (stereo partly drawn) | – | > 1320 µM | > 1320 µM

SMILES | outcome | EC50 | IC50
CC(NC(=O)C(N)CC(=O)O)NC(=O)N(C)C(C)(C)C (stereo not drawn) | – | > 200 µM | > 200 µM
COC(=O)C1CCC(=O)N1CN(C(C)=O)c1ccccc1 (stereo not drawn) | – | > 200 µM | > 200 µM
C(=C\c1cnc2ccccc2n1)/c1ccc2c(c1)OCO2 | – | > 200 µM | > 200 µM
O=C(O)[C@H]1C[C@H](O)CN1C(=O)c1ccccc1SSc1ccccc1C(=O)N1C[C@H](O)C[C@H]1C(=O)O | – | > 200 µM | > 200 µM
COc1cccc(N=N/C(=N\NC(=O)c2cc(Br)ccc2O)c2ccc(N(CCC#N)CCC#N)cc2OC)c1 | – | > 100 µM | 13.5 µM
COC(=O)C[P+](c1ccccc1)(c1ccccc1)c1ccccc1 | – | > 200 µM | > 200 µM
CCOC(=O)NC(=O)c1cn(CCCCCOC(=O)NCCCCCCNC(=O)OCCCCCn2cc(C(=O)NC(=O)OCC)c(=O)[nH]c2=O)c(=O)[nH]c1=O | inactive | – | –
CCOC(=O)Cc1cc(=O)oc2c3c(cc(OC(C)C)c12)O[C@H](C)[C@@H](C)C3=O | – | > 200 µM | 195 µM
O=c1nc2n(cc1/C=C\Br)C1CC(O)C(CO2)O1 (stereo not drawn) | inactive | – | –
CC[n+]1c([S-])nn(C)c1-c1cnccn1 | – | > 200 µM | > 200 µM
CC(=O)[O-].COc1cccc(/C=N\[N-]C(=O)c2ccncc2)c1.[Co+2].[OH3+].[OH3+].c1ccncc1 | – | > 100 µM | 57.5 µM
CCN(CC)c1nc(=O)c(C(=O)C(C)(C)C)c(C(C)(C)C)o1 | – | > 200 µM | > 200 µM
CCCCS(=O)CCC(N)C(=O)O (stereo not drawn) | – | > 100 µM | > 100 µM
CCOC(=O)Nc1cc2c(c(N)n1)N=C(c1ccccc1)CN2 | – | > 0.17 µM | 0.0316 µM
NC(N)=N/N=C/c1c(Cl)nc2n1CCS2 | – | > 200 µM | 102 µM
CC(C)(C)C(=O)/C=C/c1cccc([N+](=O)[O-])c1 | – | > 58.9 µM | 8.71 µM
COC1/C=C/OC2(C)Oc3c(C)c(O)c4c(O)c(cc(OCC(=O)N(Cc5ccccc5)Cc5ccccc5)c4c3C2=O)NC(=O)/C(C)=C/C=C/C(C)C(O)C(C)C(O)C(C)C(OC(C)=O)C1C (stereo not drawn) | inactive | – | –
CC[n+]1cnc(N)c2c(-c3ccc(Cl)cc3)cn(-c3ccc(C)cc3)c21 | – | > 200 µM | 12.3 µM
O=C(Nc1ccccc1)N(CCN(Cc1ccccc1)C(=O)Nc1ccccc1)CCN(Nc1ccccc1)C(=O)Nc1ccccc1 | – | > 200 µM | > 200 µM
NC(=O)Cn1c(=O)oc2cc(C(=O)CN3CCOCC3)ccc21 | – | > 200 µM | > 200 µM
C[N+](C)(C)C1(C(=O)[O-])CC1 | – | > 200 µM | > 200 µM
O=c1oc2ccccc2c(O)c1C(c1cccc(C(c2c(O)c3ccccc3oc2=O)c2c(O)c3ccccc3oc2=O)c1)c1c(O)c2ccccc2oc1=O | – | 42.7 µM | > 100 µM

SMILES | outcome | EC50 | IC50
O=C1C=CC(=O)c2c(O)cccc21 | inactive | – | –
Cc1cccc2c1Oc1cc(Cl)ccc1C2NC(=O)CCN1CCOCC1 (stereo not drawn) | – | > 200 µM | > 200 µM
COc1ccc2nc3cc(Cl)ccc3c(Nc3ccccc3-c3ccccc3Nc3c4ccc(Cl)cc4nc4ccc(OC)cc34)c2c1 | – | > 4.07 µM | > 4.07 µM
O=c1c(Cl)c(N2CCOCC2)cnn1-c1ccccc1 | – | > 234 µM | 209 µM
O=C(Cc1nc2c3c(ccc2[nH]c1=O)C(=O)c1ccccc1C3=O)C(=O)Nc1ccccc1[N+](=O)[O-] | – | > 38.9 µM | 10 µM
Cc1cn(C2OC(CO[Si](C)(C)C(C)(C)C)C(N(C)O[Si](C)(C)C(C)(C)C)C2[Se]c2ccccc2)c(=O)[nH]c1=O (stereo not drawn) | – | > 200 µM | 8.32 µM
Cc1cn(C2CC(O)C(CNC(=O)NO)O2)c(=O)[nH]c1=O (stereo not drawn) | – | > 200 µM | > 200 µM
CCOC(=O)CP(=S)(S)c1ccccc1 (stereo not drawn) | – | > 5500 µM | > 5500 µM
O=c1[nH]c(=O)n(C2CC(O)C(COP(=O)(On3nnc4ccccc43)N3CCCCC3)O2)cc1F (stereo not drawn) | – | > 200 µM | 0.0631 µM
COC1=C(C(c2cc(OC)c(OC)c(OC)c2)c2cc3c(cc2OC)OCO3)C(=O)OC1 (stereo not drawn) | – | > 200 µM | 10.5 µM
Cc1ccc(S(=O)(=O)NCCCSCCSCCCN)cc1 | – | > 257 µM | 41.7 µM
COc1ccc2c(=O)c(C)c(-c3ccccc3)oc2c1CN(C)C | inactive | – | –
CCN(CC)CCn1c2cc3c(cc2c(=O)c2cccnc21)OCCO3 | – | > 200 µM | 6.61 µM
COc1ccc(C2SC(N)=Nc3c2c(C)nn3C(=O)c2ccc(Cl)cc2)cc1OC (stereo not drawn) | – | > 200 µM | > 200 µM
COc1ccc(CCN2COc3ccc4ccc(=O)oc4c3C2)cc1OC | – | > 200 µM | 67.6 µM
COC(=O)[C@@H]1CN(C(=O)c2ccccc2)C(=O)N1C(=O)OCc1ccccc1 | – | > 200 µM | > 200 µM
CCCOC(=O)C(C)(C)C(OP(OCCC)OCCC)=C(C)C | – | > 200 µM | > 200 µM
CC(C)OC(=O)c1cccnc1/C=N/O | – | > 1200 µM | 112 µM
CC(CC/C=C/CO)C1CC(OS(=O)(=O)O)C2(O)C1(C)CCC1C3CCC(O)C(O)C3C(O)CC12O (stereo not drawn) | inactive | – | –
Cc1ccc(-c2sc(-c3ccc(C)cc3)c3c2C2CCC3C2)cc1 | – | > 200 µM | > 200 µM
COP1(=O)OC(C)=C(C)c2cccn21 (stereo not drawn) | – | > 60.3 µM | > 60.3 µM
CN(C)c1ccc(/C(=N\N)c2ccccc2)cc1 | – | > 200 µM | 112 µM

SMILES | outcome | EC50 | IC50
COc1ccc(-c2nc(-c3cnccn3)n(Cc3ccccc3)n2)cc1 | – | 83.2 µM | > 200 µM
COc1ccc(OC)c(NC(=O)CCC/C(CC(=O)c2ccc(O)c(OC)c2)=N\NC(=O)C[N+](C)(C)C)c1 | – | > 6.61 µM | > 6.61 µM
c1ccc2c(c1)c1ccccc1c1nccnc21 | – | > 200 µM | 69.2 µM
O=[N+]([O-])c1cccnc1NCC1(CO)CC(Cc2ccccc2)C1 (stereo not drawn) | – | > 200 µM | 110 µM
S=c1[nH]n2c(CCCCCCCCc3nnc4sc(=S)[nH]n34)nnc2s1 | – | 123 µM | 178 µM
COc1cc(OC)c2ccc(=O)oc2c1 | – | > 91.2 µM | > 91.2 µM
O=c1cnn2c(n1)sc1ccc3ccccc3c12 | – | > 50.1 µM | > 50.1 µM
Cc1ccc(Cc2n[nH]c(=O)n2Nc2ccccc2)cc1 | – | > 200 µM | > 200 µM
O=C(/C=C/c1ccc(O)c(O)c1)OCCCOC(=O)/C=C/c1ccc(O)c(O)c1 | – | > 100 µM | 13.8 µM
CC1CC2C(=O)NC(=O)C2c2[nH]c3ccccc3c21 (stereo not drawn) | inactive | – | –
CC(=O)Nc1cc(S(=O)(=O)O)cc2c(N=Nc3ccc(C(=O)Nc4ccc(N=Nc5ccc(S(=O)(=O)O)cc5)cc4)cc3)c(S(=O)(=O)O)cc(O)c12 | inactive | – | –
COc1cccc2c(=O)oc(-c3ccc(C(C)(C)C)cc3)nc12 | – | > 200 µM | 64.6 µM
NS(=O)(=O)c1ccc(CNC(=O)c2ccccc2SC(=O)CCCC[n+]2ccccc2)cc1 | – | 1.38 µM and 0.759 µM | 28.2 µM and 11.7 µM
CC(/C=C/c1ccccc1)=N\NC(=S)N/N=C(C)/C=C/c1ccccc1 | – | > 200 µM | 4.07 µM
COc1ccc(N2C(=O)C3C=CC(n4[nH]c(=O)n(Cc5ccccc5)c4=O)CC3C2=O)cc1 (stereo not drawn) | – | > 407 µM | 209 µM
O=C(O)c1ccccc1SSC(=S)N1CCOCC1 | – | > 0.02 µM | 0.000759 µM
CCO/C=C(\C(=O)OC)S(=O)(=O)c1ccc(C)cc1 | – | > 200 µM | > 200 µM
CC1CCC2(CC1)NN=c1s/c(=C\c3ccc(O)cc3)c(=O)n1N2 (stereo not drawn) | inactive | – | –
CC(=O)O[C@@H]1CN(S(=O)(=O)c2ccc(C)cc2)C[C@@H]1C1CCCCC1 | – | > 200 µM | 35.5 µM
O=C(C(=Cn1c(=S)[nH]c2ccc([N+](=O)[O-])cc21)C(=O)c1ccccc1)c1ccccc1 | – | > 200 µM | 81.3 µM
